# Measurements: publication PMC5824344 (ACS Chemical Biology, 2017)
# Key:
# [1] = target: T1, Rat intestinal cellobiase (Rattus norvegicus, UniProt Q02401); experiment: Inhibition of rat intestinal cellobiase (β-glucosidase; natural substrate, glucose release); assay type: biochemical; details: read-out: inhibition of intestinal cellobiase at the maximum tested concentration
# T1 sequence (Q02401 868-1928): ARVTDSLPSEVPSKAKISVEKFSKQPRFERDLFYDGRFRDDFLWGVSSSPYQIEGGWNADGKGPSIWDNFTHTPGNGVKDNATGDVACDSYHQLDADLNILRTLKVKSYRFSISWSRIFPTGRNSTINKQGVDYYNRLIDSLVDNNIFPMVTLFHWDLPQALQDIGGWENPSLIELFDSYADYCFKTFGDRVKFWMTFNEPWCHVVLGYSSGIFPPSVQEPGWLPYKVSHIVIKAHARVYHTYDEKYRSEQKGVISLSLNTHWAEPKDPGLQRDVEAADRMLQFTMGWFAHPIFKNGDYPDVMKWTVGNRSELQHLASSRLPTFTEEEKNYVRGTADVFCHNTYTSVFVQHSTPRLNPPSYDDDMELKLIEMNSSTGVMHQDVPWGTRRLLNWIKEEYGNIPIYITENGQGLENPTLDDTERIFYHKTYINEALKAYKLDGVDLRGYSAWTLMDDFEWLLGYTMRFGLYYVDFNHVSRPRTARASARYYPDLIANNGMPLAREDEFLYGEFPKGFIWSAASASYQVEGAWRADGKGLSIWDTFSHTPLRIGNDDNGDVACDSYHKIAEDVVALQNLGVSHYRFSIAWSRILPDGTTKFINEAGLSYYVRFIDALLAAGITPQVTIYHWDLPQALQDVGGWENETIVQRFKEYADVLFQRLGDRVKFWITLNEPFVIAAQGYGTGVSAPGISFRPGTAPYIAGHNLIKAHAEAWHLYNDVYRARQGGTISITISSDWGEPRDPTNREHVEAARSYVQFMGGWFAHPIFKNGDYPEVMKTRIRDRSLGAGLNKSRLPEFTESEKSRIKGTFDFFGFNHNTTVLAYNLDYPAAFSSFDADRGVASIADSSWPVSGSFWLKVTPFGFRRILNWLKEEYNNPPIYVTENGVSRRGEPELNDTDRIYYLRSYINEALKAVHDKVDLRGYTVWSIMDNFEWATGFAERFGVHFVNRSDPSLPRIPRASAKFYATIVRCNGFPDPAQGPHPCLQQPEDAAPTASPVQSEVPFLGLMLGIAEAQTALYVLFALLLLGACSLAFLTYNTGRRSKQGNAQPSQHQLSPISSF
# [2] = system: DENV2 strain 16681 in primary human MDMΦ; experiment: DENV primary MDMΦ antiviral assay (infectious titer by plaque assay); assay type: cell-based, dengue virus; details: Dengue virus, DENV2; dengue-infected MDMΦ, 7 donors; read-out: IC50 for DENV inhibition (infectious virus titer)
# Method: each well was scored as either positive (≥ 5 stained cells) or negative. TCID50 values were calculated according to the method of Reed and Muench.8
# 5.7 DENV Primary MDMΦ Antiviral Assay
# DENV2 strain 16681 (a gift from Prof. E. Gould, Centre for Ecology and Hydrology, Oxford, United Kingdom) was propagated in the C6/36 cell line. In the antiviral assay, MDMΦ cells (7 donors) were seeded in a 24-well plate at a density of 1× 10^6 cells/well in 1 mL of growth media. The cells were inoculated for 2 h with DENV2 16681 strain at an MOI of 1. […]
# The infectious DENV titres in supernatants collected were evaluated by plaque assay as described previously.9 Brieﬂy, LLC-MK2 cells were seeded in conﬂuent monolayers in a 12-well plate. Four 10-fold dilutions of each supernatant to be analyzed were prepared in minimum essential media (MEM, Gibco), supplemented with 100 µg mL−1 streptomycin, 100 U mL−1 penicillin and 10% (v/v) FCS. […]
# After 1 d, plaques were observed and counted from the underside of the plate by eye. […]
# 18 healthy male BALB/c mice (8 – 12 weeks old) weighing between 20 and 35 g were procured from ACTREC, Mumbai, India. […] Temperature and humidity were recorded by an auto-controlled data logging system and maintained at 22± 3◦C and 55± 15% humidity, respectively. […]
structure (smiles),measurement,setting,value
"Cc1c(C)c2c(c(C)c1OCCCCCN1CC(O)C(O)C(O)C1CO)CCC(C)(CCCC(C)CCCC(C)CCCC(C)C)O2 (centres unmarked) [Compound 4, 5′-tocopheroxypentyl-DNJ]",inhibition at 50 µM,[1],< 50%
same,IC50,[2],12.7 µM
